According to patent US20090306137A1, “TREATMENT FOR DEPRESSIVE DISORDERS” (priority 2006, published 2009):
Several values for one entry are separate records, joined by “and”; a condition that tells them apart may be missing. Equal values may be shown once.

Key:
[1] = target: Nea1; assay: receptor affinity; type: binding; conditions: high affinity
[2] = test system: selected dopaminergic, serotoninergic, and adrenergic receptors; assay: functional action at receptors; type: biochemical
[3] = target: other dopaminergic, adrenergic, and serotoninergic receptors; assay: receptor affinity; type: binding; conditions: moderate affinity
[4] = target: T1, 5-HT1A (Homo sapiens, UniProt P08908); assay: receptor affinity; type: binding; conditions: listed both as high and as moderate affinity
T1 sequence (P08908 1-422): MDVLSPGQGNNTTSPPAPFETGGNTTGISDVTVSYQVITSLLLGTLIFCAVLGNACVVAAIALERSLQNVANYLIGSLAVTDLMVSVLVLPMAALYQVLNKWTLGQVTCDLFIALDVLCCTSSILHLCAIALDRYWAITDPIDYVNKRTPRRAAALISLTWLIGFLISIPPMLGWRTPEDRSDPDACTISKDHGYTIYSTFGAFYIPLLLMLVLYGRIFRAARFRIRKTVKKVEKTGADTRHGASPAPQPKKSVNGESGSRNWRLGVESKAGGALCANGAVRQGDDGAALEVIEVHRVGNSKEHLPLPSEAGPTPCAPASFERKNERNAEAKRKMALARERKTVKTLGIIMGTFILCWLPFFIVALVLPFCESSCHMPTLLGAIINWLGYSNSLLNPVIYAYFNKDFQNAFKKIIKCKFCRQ

[5] = target: T2, Nea2c (Homo sapiens, UniProt P18825); assay: receptor affinity; type: binding; conditions: high affinity
T2 sequence (P18825 1-462): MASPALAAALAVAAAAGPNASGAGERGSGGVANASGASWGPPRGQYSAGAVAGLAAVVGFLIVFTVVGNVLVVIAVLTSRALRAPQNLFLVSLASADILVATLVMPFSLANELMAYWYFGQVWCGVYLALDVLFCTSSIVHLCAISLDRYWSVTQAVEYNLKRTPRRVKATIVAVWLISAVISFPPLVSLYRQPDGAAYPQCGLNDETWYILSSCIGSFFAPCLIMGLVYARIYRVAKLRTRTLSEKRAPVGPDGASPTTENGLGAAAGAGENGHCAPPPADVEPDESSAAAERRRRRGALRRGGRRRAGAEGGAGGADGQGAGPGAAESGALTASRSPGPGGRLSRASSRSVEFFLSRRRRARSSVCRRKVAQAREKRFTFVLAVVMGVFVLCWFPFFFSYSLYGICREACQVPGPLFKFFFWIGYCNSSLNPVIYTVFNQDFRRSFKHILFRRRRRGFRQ

[6] = target: D3 (Homo sapiens, UniProt P35462); assay: receptor affinity; type: binding; conditions: high affinity
D3, sequence (P35462 whole entry): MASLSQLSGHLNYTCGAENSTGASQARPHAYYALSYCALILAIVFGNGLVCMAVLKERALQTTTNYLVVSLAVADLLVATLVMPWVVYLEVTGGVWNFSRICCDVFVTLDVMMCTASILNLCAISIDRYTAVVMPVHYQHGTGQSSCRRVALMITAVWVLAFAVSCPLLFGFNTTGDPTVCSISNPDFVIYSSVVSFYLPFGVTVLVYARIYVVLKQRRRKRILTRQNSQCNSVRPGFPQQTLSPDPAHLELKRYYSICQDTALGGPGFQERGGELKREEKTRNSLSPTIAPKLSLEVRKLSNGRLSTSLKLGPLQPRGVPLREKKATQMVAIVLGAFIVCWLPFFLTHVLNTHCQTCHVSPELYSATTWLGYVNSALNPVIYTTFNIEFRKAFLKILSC

In the case of COc1cc(C(C)=O)ccc1OCCCN1CCC(c2noc3cc(F)ccc23)CC1 [Iloperidone, 1-[4-[3-[4-(6-flouro-1,2-benzisoxazol-3-yl)-1-piperidinyl]propoxy]-3-methoxyphenyl]ethanone], the Kd [1] is reported as < 10 nM, the “mode of action at receptors” value [2] is reported as “antagonist” and the Kd [3] is reported as 10 to 100 nM. The Kd [4] was < 10 nM and 10 to 100 nM, the Kd [5] was < 10 nM and the Kd [6] was < 10 nM.
